Data: patent publication US20240182513A1, “SEPARATION OF METAL IONS FROM A SAMPLE USING GLYCOLIPIDS” (ARIZONA BOARD OF REGENTS ON BEHALF OF THE UNIVERSITY OF …, priority 2021, published 2024)

Key:
[1] = Ion flotation of uranium from Monument Valley groundwater with rhamnolipid collectors
Source text: Groundwater Collection and Analysis: The Monument Valley site is in Cane Valley, AZ, which is in northeastern Arizona. Groundwater was collected from monitoring well 662, which is down gradient of the source zone within the boundaries of the uranium groundwater plume. Samples were collected using dedicated bladder pumps and a QED Micropurge Controller. Groundwater was collected into a 50 L LDPE carboy (Thermo Scientific Nalgene) after the groundwater's pH and dissolved oxygen levels from the pump stabilized. The solution was stored as received, on the lab bench at ambient temperature until use.
For cation and anion analysis, groundwater was filtered ([…]) then diluted with 2% trace metals grade nitric acid (Fisher Scientific, Waltham, MA) in metal-free polypropylene 15 mL centrifuge tubes (VWR, Radnor, PA). Cations were analyzed using an Elan DRC-II inductively coupled plasma mass spectrometer (ICP-MS). Anions (F^−1, Cl^−1, Br^−1, NO2^−1, NO3^−1, […], and SO4^−2) were analyzed by using a Thermo Scientific Dionex ICS-6000 high-performance ion chromatography system. Data generated in this geochemical analysis were used to model uranium speciation using Visual MINTEQ 3.1. Only major solution constituents—those greater than 10 μg L^−1 for metals or 5 μmol L^−1 for anions—were included in the experiment, and carbonates were excluded because they are stripped from solution when nitrogen is sparged in the flotation process.
Chemicals: Both biosynthetic and synthetic monorhamnolipid collectors were tested for flotation efficiency. Biosynthetic monorhamnolipid tail lengths ‘m’ and ‘n’ range from 4 to 12 due to natural congener variation. Synthetic monorhamnolipids (Rha-C10-C10, Rha-C12-C12, or Rha-C14-C14) were synthesized with equal length tails where ‘m’=‘n’=6-14. The production and purification of biosynthetic monorhamnolipids (bio-mRL) from Pseudomonas aeruginosa ATCC 9027 has been previously described by Hogan et al., J. Hazard. Mater. 2017, 340, pp. 171-178. This organism exclusively produces monorhamnolipids—rhamnolipids with a single rhamnose sugar in the hydrophilic moiety of the molecule—as a congener mixture with varying hydrophobic tail lengths, in which the rhamnosyl-β-hydroxydecanoyl-β-hydroxydecanoate (C10-C10) dominates at 75-85 wt %. A molecular weight of 504 g mol^−1 (based on the C10-C10 structure) was used to estimate the bio-mRL concentration. Synthetic monorhamnolipids with decyl (Rha-C10-C10), dodecyl (Rha-C12-C12), and tetradecyl (Rha-C14-C14) hydrophobic moieties were prepared for comparative experiment. The molecular weights of the synthetic monorhamnolipids are 504.7, 560.8, and 616.9, respectively. All solutions were made using nanopure water (≥18 MΩ-cm). pH was adjusted with HNO3 and NaOH. […]

[2] = Example 2.1 rhamnolipid precipitation, filtration, centrifugation: magnesium; conditions: for Treatment 2: Rhamnolipid and Filtration Cf / Treatment 3: Rhamnolipid and Centrifugation Cc / Treatment 1: Rhamnolipid Only Cr: magnesium concentration after treatment
Description: Structural variants of synthetic glycolipids were used to show the effect of the number and length of the hydrophobic tail(s) on rhamnolipid as a chemical precipitant. […] Solutions (10 mM) were made using nanopure water (≥18 MΩ-cm) then adjusted to a pH of 6.9±0.05 with HNO3 and NaOH. These solutions were made in advance and stored in the cold room for up to one month. They were brought to room temperature before each experiment.
Three metals were tested for binding with rhamnolipid. Lead as […] (Fisher Scientific, Waltham, MA, 99% purity), was chosen to represent a metal with high rhamnolipid-metal conditional stability constant; lanthanum as La(NO3)3 6(H2O) (Sigma-Aldrich, St. Louis, MO, 99.99% purity) was chosen as a representative REE; and magnesium as Mg(NO3)2 6(H2O) (Sigma-Aldrich, St. Louis, MO, 99% purity) was chosen to represent a metal with a low rhamnolipid-metal conditional stability constant (Hogan et al., 2017). Metal solutions (5 mM) were made using nanopure water (≥18 MΩ-cm) in 20 ml glass scintillation vials. All solutions were used within 15 min to ensure minimal adsorption to the glass vial.
Three glycolipid-based treatments were evaluated to remove metal from solution: (1) the addition of glycolipid with no further treatment (gravitational precipitation), (2) the addition of a glycolipid followed by filtration or (3) the addition of a glycolipid followed by centrifugation. Each metal (Pb, La, and Mg) was evaluated separately with each of the glycolipid structures. For each experiment, a metal solution was mixed with a glycolipid solution in a 1.7 ml reaction tube at varying molar ratios of glycolipid to metal: 0:1 (glycolipid-free control), 2:1, 5:1, and 10:1. The reactions were mixed in the order of nanopure water (≥18 MΩ-cm), glycolipid solution (10 mM), then metal solution (5 mM). The metal and glycolipid solutions were continuously stirred as they were aliquoted into the reaction tubes. The experiment was performed in triplicate.
The reaction tubes were mixed overnight (16 to 24 h) and then three samples were collected from each tube to measure the effect of each of the three treatments: a glycolipid only treatment sample, a filtration treatment sample, and a centrifugation treatment sample. Briefly, for the glycolipid only treatment samples all tubes were vortexed for approximately 5 sec immediately before removing 0.1 ml into a dilution tube of 2% trace metal grade nitric acid (12 to 14 ml) to minimize the settling of particles. For the filtration samples each reaction tube was vortexed for 5 sec and then a 0.6 ml aliquot was collected with a 1 ml syringe. A GHP acrodisc disk filter (hydrophilic polypropylene membrane, 0.45 μm pore size, 25 mm disc diameter) from Pall Life Sciences (Port Washington, New York) was then placed onto the end of the syringe and the solution was pushed through the filter. The void space in the disk filter holds approximately 0.5 ml, therefore around 0.1 ml of filtrate was collected into a dilution tube. For the centrifugation sample, the remaining solution was centrifuged at 10,000 RCF for 15 min. Approximately 0.1 ml of the supernatant was aliquoted into a dilution tube. Following collection, all samples were taken for metal analysis using ICP-MS.

With CCCCCCCCCC(CC(=O)O)OC(=O)CC(CCCCCCCCC)OC1O[C@@H](C)[C@H](O)[C@@H](O)[C@H]1O (stereo partly drawn) [Rha C12C12, rhamnosyl-β-hydroxydodecanoyl-62-hydroxydodecanoate] the uranium removal ([1]; native pH 8) was “did not collect metals”, the uranium removal percentage ([1]; pH 6.5) was 6.6% and the uranium removal ([1]; pH 7) was “No significant amount of uranium was removed”. The “Treatment 2: Rhamnolipid and Filtration Cf” value ([2]; molar ratio 2 to 1) was 0.182 ± 0.055 mmol/L, the “Treatment 3: Rhamnolipid and Centrifugation Cc” value ([2]; molar ratio 2 to 1) was 0.276 ± 0.005 mmol/L and the “Treatment 1: Rhamnolipid Only Cr” value ([2]; molar ratio 5 to 1) was 0.285 ± 0.005 mmol/L. For the same molecule, the “Treatment 2: Rhamnolipid and Filtration Cf” value ([2]; molar ratio 5 to 1) was 0.135 ± 0.074 mmol/L, the “Treatment 3: Rhamnolipid and Centrifugation Cc” value ([2]; molar ratio 5 to 1) was 0.273 ± 0.014 mmol/L and the “Treatment 1: Rhamnolipid Only Cr” value ([2]; molar ratio 10 to 1) was 0.285 ± 0.012 mmol/L. For the same molecule, the “Treatment 2: Rhamnolipid and Filtration Cf” value ([2]; molar ratio 10 to 1) was 0.008 ± 0.004 mmol/L, the “Treatment 3: Rhamnolipid and Centrifugation Cc” value ([2]; molar ratio 10 to 1) was 0.266 ± 0.012 mmol/L and the “Treatment 1: Rhamnolipid Only Cr” value ([2]; molar ratio rhamnolipid:magnesium 2 to 1) was 0.281 ± 0.002 mmol/L. The “Treatment 2: Rhamnolipid and Filtration (Rf) efficiency of removal” value ([2]; magnesium, molar ratio 2 to 1) was “(32.1%)”, the “Treatment 2: Rhamnolipid and Filtration (Rf) efficiency of removal” value ([2]; magnesium, molar ratio 5 to 1) was “(49.4%)” and the “Treatment 2: Rhamnolipid and Filtration (Rf) efficiency of removal” value ([2]; magnesium, molar ratio 10 to 1) was “(97.1%)”. For the same molecule, the “Treatment 3: Rhamnolipid and Centrifugation (Rc) efficiency of removal” value ([2]; magnesium, molar ratio 10 to 1) was “(0.4%)”.
